Reference: the supplement of paper PMC11451515

Test system: P12-Ichikawa
Experiment: cell viability relative to DMSO control; higher = less cytotoxic
Conditions: 48 h
Outline: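 Viability, reported as a per-plate percentage of DMSO wells with cell-free wells as background, came from CellTiter-Glo One luminescence. Reading took place after 48 h at 37°C. Before that, NOMO1 or SEM (500 cells/well) or P12-Ichikawa (1000 cells/well) leukemia cells, adapted for at least four passages in each medium, were seeded in 1536-well plates (5 μl) and pin-dosed with library compounds in DMSO, 47 μM to 0.79 nM over 11 threefold points.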

[1] = HPLM + 10% dialyzed FBS, 0.000781 µM
[2] = HPLM + 10% dialyzed FBS, 0.00234 µM
[3] = HPLM + 10% dialyzed FBS, 0.00702 µM
[4] = HPLM + 10% dialyzed FBS, 0.0211 µM
[5] = HPLM + 10% dialyzed FBS, 0.0632 µM
[6] = HPLM + 10% dialyzed FBS, 0.19 µM
[7] = HPLM + 10% dialyzed FBS, 0.569 µM
[8] = HPLM + 10% dialyzed FBS, 1.71 µM
[9] = HPLM + 10% dialyzed FBS, 5.12 µM
[10] = HPLM + 10% dialyzed FBS, 15.4 µM
[11] = HPLM + 10% dialyzed FBS, 46.1 µM
[12] = RPMI 5 mM glucose + 10% FBS, 0.000781 µM
[13] = RPMI 5 mM glucose + 10% FBS, 0.00234 µM
[14] = RPMI 5 mM glucose + 10% FBS, 0.00702 µM
[15] = RPMI 5 mM glucose + 10% FBS, 0.0211 µM
[16] = RPMI 5 mM glucose + 10% FBS, 0.0632 µM
[17] = RPMI 5 mM glucose + 10% FBS, 0.19 µM
[18] = RPMI 5 mM glucose + 10% FBS, 0.569 µM
[19] = RPMI 5 mM glucose + 10% FBS, 1.71 µM
[20] = RPMI 5 mM glucose + 10% FBS, 5.12 µM
[21] = RPMI 5 mM glucose + 10% FBS, 15.4 µM
[22] = RPMI 5 mM glucose + 10% FBS, 46.1 µM
[23] = RPMI 5 mM glucose + 10% dialyzed FBS, 0.000781 µM
[24] = RPMI 5 mM glucose + 10% dialyzed FBS, 0.00234 µM
[25] = RPMI 5 mM glucose + 10% dialyzed FBS, 0.00702 µM
[26] = RPMI 5 mM glucose + 10% dialyzed FBS, 0.0211 µM
[27] = RPMI 5 mM glucose + 10% dialyzed FBS, 0.0632 µM
[28] = RPMI 5 mM glucose + 10% dialyzed FBS, 0.19 µM
[29] = RPMI 5 mM glucose + 10% dialyzed FBS, 0.569 µM
[30] = RPMI 5 mM glucose + 10% dialyzed FBS, 1.71 µM
[31] = RPMI 5 mM glucose + 10% dialyzed FBS, 5.12 µM
[32] = RPMI 5 mM glucose + 10% dialyzed FBS, 15.4 µM
[33] = RPMI 5 mM glucose + 10% dialyzed FBS, 46.1 µM

| Structure (SMILES) | cell viability [1] [%] | cell viability [2] [%] | cell viability [3] [%] | cell viability [4] [%] | cell viability [5] [%] | cell viability [6] [%] | cell viability [7] [%] | cell viability [8] [%] | cell viability [9] [%] | cell viability [10] [%] | cell viability [11] [%] | cell viability [12] [%] | cell viability [13] [%] | cell viability [14] [%] | cell viability [15] [%] | cell viability [16] [%] | cell viability [17] [%] | cell viability [18] [%] | cell viability [19] [%] | cell viability [20] [%] | cell viability [21] [%] | cell viability [22] [%] | cell viability [23] [%] | cell viability [24] [%] | cell viability [25] [%] | cell viability [26] [%] | cell viability [27] [%] | cell viability [28] [%] | cell viability [29] [%] | cell viability [30] [%] | cell viability [31] [%] | cell viability [32] [%] | cell viability [33] [%] |
| --- | --- | --- | --- | --- | --- | --- | --- | --- | --- | --- | --- | --- | --- | --- | --- | --- | --- | --- | --- | --- | --- | --- | --- | --- | --- | --- | --- | --- | --- | --- | --- | --- | --- |
| N=C(N)NC(=N)N1CCOCC1 | 104 | 108 | 107 | 113 | 106 | 116 | 109 | 104 | 106 | 103 | 108 | 103 | 98.3 | 90.7 | 93.2 | 97.8 | 98.1 | 99.7 | 93.5 | 87.8 | 92.5 | 92.4 | 101 | 105 | 92.4 | 102 | 109 | 93.8 | 99.8 | 96.8 | 91.2 | 86.8 | 98.9 |
| CN(C)[C@@H](CCOc1cccc2ccccc12)c1ccccc1 | 112 | 111 | 113 | 115 | 115 | 112 | 109 | 104 | 101 | 104 | 88.5 | 116 | 118 | 131 | 122 | 113 | 116 | 115 | 101 | 92.2 | 110 | 73.1 | 111 | 102 | 114 | 110 | 115 | 105 | 111 | 108 | 98.2 | 106 | 67.1 |
| COC(=O)[C@H](c1ccccc1Cl)N1CCc2sccc2C1 | 95.8 | 99.1 | 100 | 109 | 108 | 113 | 107 | 110 | 102 | 15.7 | 12.9 | 101 | 113 | 120 | 117 | 120 | 125 | 122 | 113 | 115 | 21.4 | 14.1 | 91.6 | 105 | 109 | 111 | 115 | 111 | 118 | 117 | 104 | 45.9 | 18.7 |
| COc1cc2ncn(-c3cc(OCc4ccccc4C(F)(F)F)c(C(N)=O)s3)c2cc1OC | 114 | 122 | 108 | 112 | 121 | 110 | 95.2 | 45.2 | 13.8 | 11.9 | 11.8 | 117 | 112 | 121 | 112 | 110 | 111 | 115 | 71.5 | 12.2 | 11.8 | 11.1 | 113 | 111 | 111 | 112 | 123 | 109 | 103 | 85.3 | 19.5 | 17.4 | 12.8 |
| OCCN(CCO)c1nc(N2CCCCC2)c2nc(N(CCO)CCO)nc(N3CCCCC3)c2n1 | 113 | 110 | 118 | 114 | 114 | 113 | 109 | 107 | 107 | 98 | 75 | 108 | 108 | 113 | 111 | 119 | 113 | 110 | 106 | 109 | 109 | 68.2 | 113 | 105 | 111 | 106 | 117 | 106 | 105 | 101 | 103 | 101 | 58.4 |
| O=C(O)Cc1cccc(OCCCN(Cc2cccc(C(F)(F)F)c2Cl)CC(c2ccccc2)c2ccccc2)c1 | 117 | 115 | 116 | 121 | 119 | 115 | 116 | 108 | 108 | 102 | 108 |  |  |  |  |  |  |  |  |  |  |  | 119 | 119 | 119 | 124 | 124 | 122 | 118 | 101 | 108 | 98.8 | 103 |
| COc1ccc(C2(C#N)CCC(C(=O)O)CC2)cc1OC1CCCC1 (stereo not given) | 96.2 | 105 | 108 | 108 | 104 | 107 | 103 | 99.2 | 105 | 108 | 109 | 94.8 | 97.6 | 96.6 | 95.2 | 96.8 | 101 | 106 | 103 | 97.9 | 103 | 96.2 | 91.5 | 95.6 | 92.8 | 93.4 | 101 | 102 | 100 | 108 | 94.3 | 100 | 87.9 |
| NC[C@H]1O[C@H](O[C@H]2[C@H](O)[C@@H](O[C@H]3O[C@H](CO)[C@@H](O)[C@H](N)[C@H]3O)[C@H](N)C[C@@H]2N)[C@H](N)C[C@@H]1O | 112 | 98.8 | 110 | 106 | 117 | 109 | 106 | 99.8 | 110 | 101 | 96.6 | 102 | 111 | 95.9 | 116 | 107 | 106 | 97.1 | 85.9 | 94 | 98.5 | 105 | 110 | 116 | 117 | 119 | 112 | 88.5 | 79.7 | 91.6 | 91 | 94.6 | 117 |
| OC[C@H]1OC(OC2=CC3=C(C(=C2)O)C(=O)\C(=C/O3)C4=CC=C(O)C=C4)[C@H](O)[C@@H](O)[C@@H]1O (stereo not given in full) | 87.8 | 90.5 | 91.9 | 81.5 | 86.2 | 86.9 | 86.1 | 84.1 | 76 | 80.5 | 81.3 | 76.4 | 89.3 | 83.8 | 88.7 | 95.2 | 83.2 | 82.9 | 78 | 79 | 82.4 | 85.6 | 82.5 | 85.1 | 90.6 | 88.1 | 86 | 82.9 | 69.3 | 86.3 | 71.7 | 79.7 | 80 |
| Cn1cnc([N+](=O)[O-])c1Sc1ncnc2nc[nH]c12 | 95.4 | 97 | 98.4 | 95.7 | 102 | 97.7 | 96.5 | 86 | 36.2 | 28.4 | 29.2 | 81.8 | 88.5 | 82.1 | 88.5 | 99.2 | 95.1 | 90.9 | 79.9 | 64.5 | 28.3 | 19.4 | 88.9 | 95.3 | 98.1 | 91 | 97.2 | 92.1 | 88.5 | 72.6 | 63.2 | 21.2 | 13.7 |
| CCOC(=O)[C@@H](N)CCC(=O)N[C@@H](CSCc1ccccc1)C(=O)N[C@@H](C(=O)OCC)c1ccccc1 | 109 | 124 | 128 | 126 | 131 | 131 | 129 | 132 | 139 | 140 | 123 |  |  |  |  |  |  |  |  |  |  |  |  |  |  |  |  |  |  |  |  |  |  |
| CO[C@@H]1[C@@H](O)[C@H](O)[C@@H](n2c3c(Cl)cccc3c3c4c(c5c6cccc(Cl)c6[nH]c5c32)C(=O)NC4=O)O[C@H]1CO | 109 | 100 | 108 | 106 | 100 | 81.9 | 14.3 | 5.78 | 7.57 | 4.61 | 3.32 | 101 | 104 | 103 | 103 | 94.9 | 71 | 8.36 | 6.11 | 4.86 | 3.72 | 3.9 | 97.7 | 91.4 | 96.1 | 94.7 | 85.7 | 68.4 | 14 | 7.72 | 8.77 | 6.63 | 4.8 |
| COc1cc2c(Nc3ccc(Cl)c(Cl)c3F)ncnc2cc1OC[C@@H]1C[C@@H]2CN(C)C[C@@H]2C1 | 95.2 | 102 | 108 | 112 | 100 | 110 | 104 | 104 | 108 | 81.8 | 5.15 | 95.3 | 102 | 98 | 105 | 109 | 112 | 114 | 110 | 119 | 106 | 5.73 | 108 | 114 | 108 | 113 | 117 | 117 | 115 | 111 | 113 | 89.6 | 4.74 |
| O=C1CCCC(=O)C1C(=O)c1ccc(C(F)(F)F)cc1[N+](=O)[O-] | 106 | 106 | 108 | 118 | 112 | 113 | 106 | 105 | 110 | 98.3 | 100 | 123 | 116 | 114 | 123 | 113 | 109 | 119 | 110 | 111 | 109 | 105 | 113 | 113 | 107 | 110 | 115 | 110 | 108 | 110 | 108 | 104 | 99.5 |
| O=C(NCC1CCOCC1)c1cnc(Nc2ccc(Cl)cc2Cl)nc1C(F)(F)F | 102 | 111 | 115 | 118 | 109 | 117 | 118 | 115 | 115 | 121 | 124 | 100 | 127 | 123 | 121 | 130 | 131 | 112 | 131 | 123 | 132 | 118 | 98 | 115 | 114 | 127 | 123 | 132 | 120 | 122 | 122 | 127 | 123 |
| N#CC[C@H](C1CCCC1)n1cc(-c2ncnc3[nH]ccc23)cn1 | 95.7 | 95.2 | 98.5 | 98.1 | 98.6 | 90.3 | 89.4 | 91.8 | 72.9 | 52.8 | 40 | 93.7 | 95.7 | 93.4 | 92.6 | 103 | 89.2 | 83.1 | 95.4 | 75.4 | 54.5 | 23.3 | 90.8 | 89 | 86.3 | 87.4 | 89.6 | 88.3 | 82.2 | 87.7 | 70.4 | 41.1 | 23.3 |
